Source: ChEMBL document CHEMBL3639324, “Meta-substituted phenyl sulfonyl amides of secondary amino acid amides, the production thereof, and use thereof as matriptase inhibitors” (2013)
pKi: −log10 of the molar value.

Biological target: T1, Suppressor of tumorigenicity 14 protein (Homo sapiens, UniProt Q9Y5Y6)
T1 sequence (Q9Y5Y6 whole entry): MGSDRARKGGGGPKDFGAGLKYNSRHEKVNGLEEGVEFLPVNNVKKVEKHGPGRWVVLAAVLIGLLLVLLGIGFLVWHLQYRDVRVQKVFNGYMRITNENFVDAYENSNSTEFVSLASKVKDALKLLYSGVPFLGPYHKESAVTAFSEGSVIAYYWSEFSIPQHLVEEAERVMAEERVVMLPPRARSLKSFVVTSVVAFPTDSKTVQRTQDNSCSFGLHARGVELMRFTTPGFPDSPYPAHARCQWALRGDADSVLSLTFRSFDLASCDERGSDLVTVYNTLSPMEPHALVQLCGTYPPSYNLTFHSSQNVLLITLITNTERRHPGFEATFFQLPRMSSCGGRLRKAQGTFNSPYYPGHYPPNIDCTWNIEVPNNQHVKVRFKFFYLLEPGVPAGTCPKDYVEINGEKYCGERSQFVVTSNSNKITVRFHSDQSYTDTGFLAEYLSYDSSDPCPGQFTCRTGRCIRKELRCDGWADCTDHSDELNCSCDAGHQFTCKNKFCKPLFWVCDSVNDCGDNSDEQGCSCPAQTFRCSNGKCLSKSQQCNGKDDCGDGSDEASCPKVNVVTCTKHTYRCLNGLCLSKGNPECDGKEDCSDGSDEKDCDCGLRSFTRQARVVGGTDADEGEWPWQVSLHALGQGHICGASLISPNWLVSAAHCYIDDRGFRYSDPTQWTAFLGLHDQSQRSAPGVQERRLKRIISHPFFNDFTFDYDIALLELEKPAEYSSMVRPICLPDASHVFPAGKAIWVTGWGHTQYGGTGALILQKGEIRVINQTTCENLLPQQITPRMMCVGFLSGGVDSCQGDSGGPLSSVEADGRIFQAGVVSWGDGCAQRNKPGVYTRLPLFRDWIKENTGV
Experiment: Inhibition Assay: Inhibition assay using matriptase enzyme

## CNC(=O)CCCC1CCN(C(=O)[C@H](Cc2cccc(C(=N)N)c2)NS(=O)(=O)c2cccc(N3CCNCC3=O)c2)CC1
  pKi: 7.62
